# Laboratory results reported in publication PMC4487512 (Biochemical pharmacology, 2009).
# Marks after values point to notes of the source that are not given here.
# Tests used:
# [1] = system: cryopreserved human hepatocytes; settings: for Depletion of the parent compound, HμREL device: human hepatocytes under flow, at 24 h; for HμREL clearance CLhurel: flow 4.5 μL/min/chip, 30,000 hepatocytes per chamber, 100 μL
# [2] = system: cryopreserved human hepatocytes; settings: at 24 h
# [3] = human, known in vivo clearance values; ref literature (citation not given); cited from earlier work
Compound,HμREL clearance CLhurel [1],"Depletion of the parent compound, HμREL device [1]","Depletion of the parent compound, static culture system [2]",In vivo clearance [3] [mL/min/kg]
"NC(=O)N1c2ccccc2C=Cc2ccccc21 [Carbamazepine, carbamazepine]",,did not show significant depletion,did not show significant depletion,1.3 ± 0.5
"Cn1c(=O)c2c(ncn2C)n(C)c1=O [Caffeine, caffeine]",0.01^a μL/min/chip,did not show significant depletion,did not show significant depletion,
"O=C1CC2(CCCC2)CC(=O)N1CCCCN1CCN(c2ncccn2)CC1 [Buspirone, buspirone]",3.13 μL/min/chip,,,

# More lines, main results first:
HμREL clearance CLhurel [1],Compound,"Depletion of the parent compound, HμREL device [1]","Depletion of the parent compound, static culture system [2]",In vivo clearance [3] [mL/min/kg]
0.35 μL/min/chip,"CC(C)(C)NC[C@H](O)COc1nsnc1N1CCOCC1 [Timolol, timolol]",,,7.7 ± 1.2
1.13 μL/min/chip,"CCCc1nn(C)c2c(=O)[nH]c(-c3cc(S(=O)(=O)N4CCN(C)CC4)ccc3OCC)nc12 [Sildenafil, sildenafil]",,,6.0 ± 1.1
